The subject of one assay is Trichophyton mentagr. The assay can be described thus: Antimycotic in vitro activity, serial dilution test, Trichophyton mentagr. Conditions: Sabouraud's test medium, 28-37° C., 96 hours. In kind it is cell-based, Trichophyton mentagrophytes. The method, then: (§1) The in vitro tests were carried out in the serial dilution test using inocula of microorganisms of approximately 5×10^3 to 10^4 microorganisms/ml of substrate. The nutrient medium used was (a) for dermatophytes and Blastomycetes: Sabouraud's test medium (b) for yeasts: meat extract/dextrose broth. The incubation temperature was 28° C. to 37° C., and the incubation period was 24 to 96 hours with yeasts and 96 hours with dermatophytes and Blastomycetes.

The subject of another assay is Candida albicans. The assay can be described thus: Antimycotic in vitro activity, serial dilution test, Candida albicans. It counts as cell-based. The conditions noted are these: meat extract/dextrose broth, 28-37° C., 24 to 96 hours. The method, then: as §1
The test system of another assay is Torulopsis glabrata. The assay can be described thus: Antimycotic in vitro activity, serial dilution test, Torulopsis glabrata. It counts as cell-based. Conditions: Nakaseomyces glabratus; 28-37° C., 24 to 96 hours. The method, then: as §1
The next assay deals with Aspergillus fumigatus. The assay can be described thus: Antimycotic in vitro activity, serial dilution test, Aspergillus fumigatus. It counts as cell-based. Conditions: 28-37° C. The method, then: as §1
Assay [1] concerns dermatophytes, Blastomycetes and yeasts. The assay can be described thus: Antimycotic in vitro activity, serial dilution test, overall comparison. In kind it is cell-based. The method, then: as §1
Another assay concerns Microsporum canis. The assay can be described thus: Antimycotic in vitro activity, serial dilution test, Microsporum canis. In kind it is cell-based. The conditions noted are these: Sabouraud's test medium, 28-37° C., 96 hours. The method, then: as §1

Converted amounts (≈) assume the structure as drawn.

With `CCCSC1(C(O)(/C=C/c2ccc(Cl)cc2Cl)Cn2cncn2)CC1` (stereo not drawn) [Compound I-3, trans-4-(2,4-dichlorophenyl)-2-(1-propylmercaptocyclopropyl)1-(1,2,4-triazol-1-yl)-but-3-en-2-ol], the MIC (commonly the lowest concentration that inhibits growth of the organism) against Trichophyton mentagr. was 8 µg/mL (≈ 20.1 µM); with Candida albicans, 4 µg/mL (≈ 10 µM); against Torulopsis glabrata it was 4 µg/mL (≈ 10 µM); with Aspergillus fumigatus, 16 µg/mL (≈ 40.2 µM). Further, the “antimycotic activity compared with compounds (A) and (B)” value in assay [1] is “better antimycotic activity than the compounds (A) and (B)”.
For `CC(C)SC1(C(O)(CCc2ccc(Cl)cc2)Cn2cncn2)CC1` (stereo not shown) [Compound I-8], the MIC turned out to be 2 µg/mL (≈ 5.47 µM) against Trichophyton mentagr., 8 µg/mL (≈ 21.9 µM) in the assay with Candida albicans, 32 µg/mL (≈ 87.4 µM) against Torulopsis glabrata and 4 µg/mL (≈ 10.9 µM) in the assay with Aspergillus fumigatus. In addition, the “antimycotic activity compared with compounds (A) and (B)” value in assay [1] was “better antimycotic activity than the compounds (A) and (B)”.
As to `CCSC1(C(O)(CCc2ccc(Cl)cc2Cl)Cn2cncn2)CC1` (stereo not shown) [Compound I-9], the MIC stood at 8 µg/mL (≈ 20.7 µM) in the assay on Trichophyton mentagr., 4 µg/mL (≈ 10.4 µM) in the assay with Candida albicans, 16 µg/mL (≈ 41.4 µM) in the assay with Torulopsis glabrata and 16 µg/mL (≈ 41.4 µM) in the assay on Aspergillus fumigatus. Moreover, in assay [1], the “antimycotic activity compared with compounds (A) and (B)” value was “better antimycotic activity than the compounds (A) and (B)”.
With `OC(CCc1ccc(Cl)cc1)(Cn1cncn1)C1(SCc2ccccc2)CC1` (stereo not shown) [Compound I-10], the MIC was less than 1 µg/mL against Trichophyton mentagr.; 8 µg/mL (≈ 19.3 µM) with Microsporum canis; 2 µg/mL (≈ 4.83 µM) against Candida albicans; 4 µg/mL (≈ 9.66 µM) in the assay with Torulopsis glabrata; 64 µg/mL (≈ 155 µM) in the assay on Aspergillus fumigatus. In addition, the “antimycotic activity compared with compounds (A) and (B)” value in assay [1] was “better antimycotic activity than the compounds (A) and (B)”.
For `OC(CCc1ccc(F)cc1)(Cn1cncn1)C1(Cl)CC1` (stereo not shown) [Compound I-12], the MIC in the assay with Trichophyton mentagr. was less than 1 µg/mL; against Microsporum canis, 4 µg/mL (≈ 12.9 µM); in the assay with Candida albicans it was 8 µg/mL (≈ 25.8 µM); against Torulopsis glabrata, 32 µg/mL (≈ 103 µM); with Aspergillus fumigatus, less than 1 µg/mL. Further, the “antimycotic activity compared with compounds (A) and (B)” value in assay [1] is “better antimycotic activity than the compounds (A) and (B)”.
`CCSC1(C(O)(C=Cc2ccc(Cl)cc2Cl)Cn2cncn2)CC1` (stereo not shown) [Compound I-16]: the MIC with Trichophyton mentagr. was less than 1 µg/mL; against Microsporum canis it was less than 1 µg/mL; against Candida albicans, 8 µg/mL (≈ 20.8 µM); in the assay on Torulopsis glabrata it was less than 1 µg/mL; in the assay on Aspergillus fumigatus it was 4 µg/mL (≈ 10.4 µM). The “antimycotic activity compared with compounds (A) and (B)” value in assay [1] was “better antimycotic activity than the compounds (A) and (B)”.
For `CC(C)(CCC(O)(Cn1cncn1)C1(Cl)CC1)Cc1ccc(Cl)cc1` (stereo not shown) [Compound I-17], the minimal inhibitory concentration (MIC) with Trichophyton mentagr. was 2 µg/mL (≈ 5.23 µM); in the assay on Candida albicans, less than 1 µg/mL; against Torulopsis glabrata, 2 µg/mL (≈ 5.23 µM); in the assay on Aspergillus fumigatus, 4 µg/mL (≈ 10.5 µM). Further, the “antimycotic activity compared with compounds (A) and (B)” value in assay [1] was “better antimycotic activity than the compounds (A) and (B)”.
With `OC(CCc1ccccc1Cl)(Cn1cncn1)C1(Cl)CC1` (stereo not shown) [Compound I-19], the MIC against Trichophyton mentagr. was less than 1 µg/mL; against Microsporum canis, 2 µg/mL (≈ 6.13 µM); against Candida albicans, 4 µg/mL (≈ 12.3 µM); with Torulopsis glabrata, 16 µg/mL (≈ 49 µM); in the assay with Aspergillus fumigatus, 2 µg/mL (≈ 6.13 µM). Also, the “antimycotic activity compared with compounds (A) and (B)” value in assay [1] is “better antimycotic activity than the compounds (A) and (B)”.
Consider `Cc1ccc(CCC(O)(Cn2cncn2)C2(Cl)CC2)cc1` (stereo not shown) [Compound I-20], for which the minimum inhibitory concentration (MIC) against Trichophyton mentagr. was less than 1 µg/mL; in the assay on Microsporum canis, 2 µg/mL (≈ 6.54 µM); in the assay with Candida albicans it was 4 µg/mL (≈ 13.1 µM); in the assay on Torulopsis glabrata, 2 µg/mL (≈ 6.54 µM); against Aspergillus fumigatus, less than 1 µg/mL. In addition, the “antimycotic activity compared with compounds (A) and (B)” value in assay [1] was “better antimycotic activity than the compounds (A) and (B)”.
As to `OC(CCc1ccc(Cl)cc1Cl)(Cn1cncn1)C1(Cl)CC1` (stereo not shown) [Compound I-22], the minimal inhibitory concentration (MIC) in the assay with Trichophyton mentagr. is less than 1 µg/mL; with Microsporum canis it was 4 µg/mL (≈ 11.1 µM); against Candida albicans, 2 µg/mL (≈ 5.55 µM); in the assay with Torulopsis glabrata, 2 µg/mL (≈ 5.55 µM); in the assay on Aspergillus fumigatus, less than 1 µg/mL. Also, in assay [1], the “antimycotic activity compared with compounds (A) and (B)” value is “better antimycotic activity than the compounds (A) and (B)”.
As for `OC(CCc1ccccc1)(Cn1cncn1)C1(Cl)CC1` (stereo not shown) [Compound I-23], the MIC against Trichophyton mentagr. was less than 1 µg/mL; against Microsporum canis, 2 µg/mL (≈ 6.85 µM); against Candida albicans, 4 µg/mL (≈ 13.7 µM); in the assay with Torulopsis glabrata, 8 µg/mL (≈ 27.4 µM); in the assay on Aspergillus fumigatus it was less than 1 µg/mL. The “antimycotic activity compared with compounds (A) and (B)” value in assay [1] is “better antimycotic activity than the compounds (A) and (B)”.
In the case of `OC(CCc1ccc(OC(F)(F)F)cc1)(Cn1cncn1)C1(Cl)CC1` (stereo not shown) [Compound I-24], the MIC against Trichophyton mentagr. is less than 1 µg/mL; in the assay on Microsporum canis it was 4 µg/mL (≈ 10.6 µM); in the assay with Candida albicans it was 16 µg/mL (≈ 42.6 µM); against Torulopsis glabrata it was 4 µg/mL (≈ 10.6 µM); in the assay on Aspergillus fumigatus it was less than 1 µg/mL. Moreover, in assay [1], the “antimycotic activity compared with compounds (A) and (B)” value was “better antimycotic activity than the compounds (A) and (B)”.
For `OC(CCc1ccc(-c2ccccc2)cc1)(Cn1cncn1)C1(Cl)CC1` (stereo not shown) [Compound I-25], the MIC in the assay on Trichophyton mentagr. is less than 1 µg/mL; against Microsporum canis, 2 µg/mL (≈ 5.44 µM); with Candida albicans, less than 1 µg/mL; with Torulopsis glabrata, 2 µg/mL (≈ 5.44 µM); with Aspergillus fumigatus, less than 1 µg/mL. In assay [1], the “antimycotic activity compared with compounds (A) and (B)” value is “better antimycotic activity than the compounds (A) and (B)”.
As to `Cc1ccc(C=CC(O)(Cn2cncn2)C2(Cl)CC2)cc1` (stereo not shown) [Compound I-28], the MIC in the assay with Trichophyton mentagr., against Microsporum canis, in the assay with Candida albicans, with Torulopsis glabrata and in the assay with Aspergillus fumigatus was less than 1 µg/mL throughout. Besides, the “antimycotic activity compared with compounds (A) and (B)” value in assay [1] was “better antimycotic activity than the compounds (A) and (B)”.
As for `OC(C=Cc1ccccc1Cl)(Cn1cncn1)C1(Cl)CC1` (stereo not shown) [Compound I-31], the MIC was less than 1 µg/mL in the assay on Trichophyton mentagr.; 4 µg/mL (≈ 12.3 µM) in the assay on Microsporum canis; 8 µg/mL (≈ 24.7 µM) in the assay with Candida albicans; 8 µg/mL (≈ 24.7 µM) against Torulopsis glabrata; 2 µg/mL (≈ 6.17 µM) against Aspergillus fumigatus. Besides, the “antimycotic activity compared with compounds (A) and (B)” value in assay [1] was “better antimycotic activity than the compounds (A) and (B)”.
`OC(C=Cc1ccccc1)(Cn1cncn1)C1(Cl)CC1` (stereo not shown) [Compound I-32]: the minimal inhibitory concentration (MIC) is less than 1 µg/mL in the assay on Trichophyton mentagr.; 4 µg/mL (≈ 13.8 µM) against Microsporum canis; 4 µg/mL (≈ 13.8 µM) against Candida albicans; 8 µg/mL (≈ 27.6 µM) against Torulopsis glabrata; 2 µg/mL (≈ 6.9 µM) in the assay with Aspergillus fumigatus. Moreover, in assay [1], the “antimycotic activity compared with compounds (A) and (B)” value was “better antimycotic activity than the compounds (A) and (B)”.
On to `CC(C)(C)C=CC(O)(Cn1cncn1)C1(Cl)CC1` (stereo not shown) [Compound I-38], for which the minimum inhibitory concentration (MIC) in the assay on Trichophyton mentagr. was less than 1 µg/mL; with Microsporum canis, 4 µg/mL (≈ 14.8 µM); against Candida albicans it was 4 µg/mL (≈ 14.8 µM); against Torulopsis glabrata, 4 µg/mL (≈ 14.8 µM); in the assay with Aspergillus fumigatus, 8 µg/mL (≈ 29.7 µM). In addition, in assay [1], the “antimycotic activity compared with compounds (A) and (B)” value was “better antimycotic activity than the compounds (A) and (B)”.
Take `OC(C=CC1CCCCC1)(Cn1cncn1)C1(Cl)CC1` (stereo not shown) [Compound I-39]: the MIC was found to be 2 µg/mL (≈ 6.76 µM) in the assay with Trichophyton mentagr., 16 µg/mL (≈ 54.1 µM) with Candida albicans, 16 µg/mL (≈ 54.1 µM) against Torulopsis glabrata and 2 µg/mL (≈ 6.76 µM) with Aspergillus fumigatus. Besides, the “antimycotic activity compared with compounds (A) and (B)” value in assay [1] is “better antimycotic activity than the compounds (A) and (B)”.

(Values after patent US4925865A, “Antimycotic agents” (Bayer Aktiengesellschaft, priority 1987, dated 1990).)
